Assay results: patent US20020086835A1, “Use of adenosine deaminase inhibitors to treat systemic inflammatory response syndrome” (priority 2000, published 2002)

Tests used:
xanthine oxidase = biological target: T1, xanthine oxidase (Rattus norvegicus, UniProt P22985); details: 10 nM, hypoxic perfused rat hearts; cited from earlier work
T1 construct: host or cells: isolated perfused rat heart

adenosine deaminase = biological target: T2, adenosine deaminase (Homo sapiens, UniProt P00813); details: FIG. 10 legend; cited from earlier work
T2 sequence (P00813 1-363): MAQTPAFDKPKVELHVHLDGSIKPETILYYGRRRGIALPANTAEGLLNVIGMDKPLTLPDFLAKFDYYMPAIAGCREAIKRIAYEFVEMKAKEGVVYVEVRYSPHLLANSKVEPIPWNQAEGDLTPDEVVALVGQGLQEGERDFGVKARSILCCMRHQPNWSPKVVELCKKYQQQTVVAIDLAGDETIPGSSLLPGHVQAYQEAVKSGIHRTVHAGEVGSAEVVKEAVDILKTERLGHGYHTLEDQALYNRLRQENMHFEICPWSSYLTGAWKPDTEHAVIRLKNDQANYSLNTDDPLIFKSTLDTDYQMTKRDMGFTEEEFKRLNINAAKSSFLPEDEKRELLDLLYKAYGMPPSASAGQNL

adenosine receptors = test: Regional vascular resistance by radiolabelled microspheres 24 hours after sepsis induction; type: in vivo, rat; details: septic rats
Description: Systemic vascular responses were examined 24 hours after induction of sepsis in the presence or absence of adenosine receptor blockade in septic and non-septic rats using radiolabelled microspheres. For these experiments, the surgical procedure involving vascular access was modified to include a catheter in the left ventricle of the heart (via the carotid artery), and a catheter in the tail artery (Intramedic PE-50, Baxter) to permit reference blood withdrawal and blood pressure monitoring. Regional blood flows were determined using radiolabelled microspheres. The microspheres ([…] New England Nuclear, Boston), labeled with one of four isotopes (^46Sc, ^85Sr, ^95Nb, ^141Ce), were mixed in 0.9% normal saline with 0.01 % Tween-80 added to prevent aggregation. The microspheres were adjusted to provide a minimum of 400 microspheres per tissue sample, and represented approximately 100,000-250,000 spheres per injection. The specific Isotopes and their order of injection were randomized in each experiment. with each injection representing a volume of 0.4 ml/injectate. The microspheres were sonicated for a minimum of 30 minutes, and vortexed vigorously for at least 30 seconds prior to injection. A reference withdrawal sample was taken at 0.33 ml/min from the tail artery catheter using a mechanical pump (Harvard Model 22). The reference withdrawal was started 10 seconds prior to injecting the isotopes, and continued for 150 seconds. […] Wet weights were obtained and all tissues were counted in a gamma spectrophotometer (Beckman 9000). Gamma activity in the injectate vials was counted prior to the experiments. Actual injected amounts for each isotope were calculated by subtracting any isotope counts remaining in the vials, syringes, and catheters used for injection. Cardiac output (CO) was determined by dividing the total injectate counts for any given isotope by the counts in the reference sample and multiplying by the fixed withdrawal rate of the reference sample. The results for cardiac output are expressed as ml/min. Tissue counts attributed to each isotope were determined after subtracting the overlap of energy spectra from higher energy isotopes (Compton back-scatter). Individual tissue blood flows were determined by dividing the counts obtained in the tissue by the reference withdrawal counts and multiplying by the reference withdrawal rate. Tissue blood flows were then normalized to wet weight was calculated by adding the individual tissue blood flows of the stomach, small intestine, cecum, colon, pancreas, hepatic artery and spleen, and dividing by the liver weight. Regional tissue vascular resistances were calculated from regional blood flows and arterial blood pressure, according to the equation: […]

T1 sequence (P22985 whole entry, the tested form may be a part): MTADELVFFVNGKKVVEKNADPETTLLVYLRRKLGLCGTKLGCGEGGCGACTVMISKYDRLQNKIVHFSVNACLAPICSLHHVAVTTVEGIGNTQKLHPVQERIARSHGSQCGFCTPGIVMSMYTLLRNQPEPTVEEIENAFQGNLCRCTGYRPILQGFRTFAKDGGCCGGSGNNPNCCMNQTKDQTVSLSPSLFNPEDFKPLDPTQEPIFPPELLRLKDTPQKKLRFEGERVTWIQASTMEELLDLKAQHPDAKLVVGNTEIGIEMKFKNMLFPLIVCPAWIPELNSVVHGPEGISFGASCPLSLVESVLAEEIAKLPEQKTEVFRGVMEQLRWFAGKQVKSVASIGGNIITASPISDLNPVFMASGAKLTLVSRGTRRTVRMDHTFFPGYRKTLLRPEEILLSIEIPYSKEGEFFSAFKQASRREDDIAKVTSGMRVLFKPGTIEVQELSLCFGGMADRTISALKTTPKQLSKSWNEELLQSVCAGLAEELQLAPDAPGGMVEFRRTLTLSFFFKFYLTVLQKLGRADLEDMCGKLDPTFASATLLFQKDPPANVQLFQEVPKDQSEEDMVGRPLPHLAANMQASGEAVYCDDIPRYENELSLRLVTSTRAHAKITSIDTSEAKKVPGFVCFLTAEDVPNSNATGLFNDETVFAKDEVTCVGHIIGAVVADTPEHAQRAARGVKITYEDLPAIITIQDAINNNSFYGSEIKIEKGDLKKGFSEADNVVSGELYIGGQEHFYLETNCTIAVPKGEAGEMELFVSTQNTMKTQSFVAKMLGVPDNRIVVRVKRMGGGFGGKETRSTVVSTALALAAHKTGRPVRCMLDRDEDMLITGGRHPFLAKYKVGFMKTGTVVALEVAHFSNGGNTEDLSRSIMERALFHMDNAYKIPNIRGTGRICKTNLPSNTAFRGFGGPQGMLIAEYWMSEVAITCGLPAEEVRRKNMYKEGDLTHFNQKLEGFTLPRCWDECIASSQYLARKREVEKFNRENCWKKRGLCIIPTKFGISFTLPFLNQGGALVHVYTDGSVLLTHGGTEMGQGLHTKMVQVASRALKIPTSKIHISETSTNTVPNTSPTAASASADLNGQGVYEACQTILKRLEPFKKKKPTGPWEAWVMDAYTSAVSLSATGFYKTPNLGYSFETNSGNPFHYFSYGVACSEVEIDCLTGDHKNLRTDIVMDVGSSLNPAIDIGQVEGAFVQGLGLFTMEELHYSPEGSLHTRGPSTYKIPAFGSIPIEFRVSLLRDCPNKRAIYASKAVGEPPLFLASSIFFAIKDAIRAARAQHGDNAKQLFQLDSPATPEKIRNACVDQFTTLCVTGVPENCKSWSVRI

Oc1ncnc2[nH]ncc12 [Allopurinol]
Uric acid production (xanthine oxidase): below detectable levels

OC[C@H]1O[C@@H](n2cnc3c2N=CNC[C@@H]3O)[C@H](F)[C@@H]1O [2′-deoxy-8-epi-2′-fluorocoformycin]
Enzyme-inhibitory activity against adenosine deaminase (adenosine deaminase): high enzyme-inhibitory activities

Cn1c(=O)c2[nH]c(-c3ccccc3)nc2n(C)c1=O [8-PTH, 8-phenyltheophylline]
Brain (cerebral) vascular resistance (adenosine receptors): caused increases
Skeletal muscle vascular resistance (adenosine receptors): caused increases
Total hepato-splanchnic vascular resistance (adenosine receptors): caused increases
